Experimental data: BindingDB's records for doi:10.1021/jm00094a001 (Abbott Laboratories, 1992)
*1 amine or outer side, *2 acyl side, *3 side chain or, on linkers, in order; H or OH if unused. Where a SMILES comes first, the peptide text is derived from it. [ ]: non-standard residue; d: D form. The star is where a group is joined. Hydrocinnamoyl(4-OSO3H) = O=C(CCc1ccc(OS(=O)(=O)O)cc1)*; X2 = O=C([C@@H]1CC(OS(=O)(=O)O)CN1[*:1])[*:2]; X5 = CCC[C@H]1CCN([*:1])[C@@H]1C(=O)[*:2]; X4 = O=C(c1ccc2cc(OS(=O)(=O)O)ccc2c1)*; X1 = CCCC1CCN([*:1])[C@@H]1C(=O)[*:2]; X3 = O=C(/C(=C/c1ccccc1)N[*:1])[*:2]; NMeF = CN[C@@H](Cc1ccccc1)C(=O)O; Nle = CCCC[C@H](N)C(=O)O; Ava = NCCCCC(=O)O

Tests used:
[1] = biological target: Gastrin/cholecystokinin type B receptor (Cavia porcellus); experiment: Evaluated in vitro for its binding affinity towards cholecystokinin type B receptor of guinea pig cortex
[2] = biological target: Gastrin/cholecystokinin type B receptor (Cavia porcellus); experiment: In vitro binding affinity towards Cholecystokinin type B receptor of guinea pig cortex
[3] = biological target: Cholecystokinin receptor type A (Cavia porcellus); experiment: Evaluated in vitro for its binding affinity towards cholecystokinin type A receptor of guinea pig pancreas
[4] = biological target: Gastrin/cholecystokinin type B receptor (Cavia porcellus); experiment: Evaluated in vitro for its binding affinity towards cholecystokinin type B receptor of guinea pig cortex; remark: listed apart in the source

| SMILES | IC50 [1] | IC50 [3] | other results |
| --- | --- | --- | --- |
| CCCC[C@H](NC(=O)[C@H](Cc1c[nH]c2ccccc12)NC(=O)CNC(=O)[C@@H](CCCC)NC(=O)CCc1ccc(OS(=O)(=O)O)cc1)C(=O)N[C@@H](CC(=O)O)C(=O)N[C@@H](Cc1ccccc1)C(N)=O | – | – | IC50 [2]: 7.9 nM |
| CCCC[C@H](NC(=O)c1ccc2cc(OS(=O)(=O)O)ccc2c1)C(=O)NCC(=O)N[C@@H](Cc1c[nH]c2ccccc12)C(=O)N[C@@H](CCCC)C(=O)N[C@@H](CC(=O)O)C(=O)N[C@@H](Cc1ccccc1)C(N)=O (X4-[Nle]GW[Nle]DF-NH2) | 32 nM | – | – |
| CCC[C@H]1CCN(C(=O)[C@H](Cc2c[nH]c3ccccc23)NC(=O)CNC(=O)[C@@H]2CCCN2C(=O)CCc2ccc(OS(=O)(=O)O)cc2)[C@@H]1C(=O)N[C@@H](CC(=O)O)C(=O)N(C)[C@@H](Cc1ccccc1)C(N)=O ({Hydrocinnamoyl(4-OSO3H)}-PGW[X5]D[NMeF]-NH2) | 0.9 nM | – | – |
| CCCC[C@H](NC(=O)CCc1ccc(OS(=O)(=O)O)cc1)C(=O)NCC(=O)N[C@@H](Cc1c[nH]c2ccccc12)C(=O)N[C@@H](CCCC)C(=O)N[C@@H](CC(=O)O)C(=O)N/C(=C\c1ccccc1)C(N)=O ({Hydrocinnamoyl(4-OSO3H)}-[Nle]GW[Nle]D[X3]-NH2) | – | 5.3 nM | – |
| CCCC[C@H](NC(=O)CCc1ccc(OS(=O)(=O)O)cc1)C(=O)NCC(=O)N[C@@H](Cc1c[nH]c2ccccc12)C(=O)N[C@@H](CCCC)C(=O)N1CC(OS(=O)(=O)O)C[C@H]1C(=O)N[C@@H](Cc1ccccc1)C(N)=O (some centres undefined) ({Hydrocinnamoyl(4-OSO3H)}-[Nle]GW[Nle][X2]F-NH2) | – | 16 nM | IC50 [4]: 140 nM |
| CCCC[C@H](NC(=O)CCc1ccc(OS(=O)(=O)O)cc1)C(=O)NCC(=O)N[C@@H](Cc1c[nH]c2ccccc12)C(=O)N1CCC(CCC)[C@H]1C(=O)N[C@@H](CC(=O)O)C(=O)N(C)[C@@H](Cc1ccccc1)C(N)=O (some centres undefined) ({Hydrocinnamoyl(4-OSO3H)}-[Nle]GW[X1]D[NMeF]-NH2) | – | 4.2 nM | IC50 [4]: 0.3 nM |
| CCCC[C@H](NC(=O)CCc1ccc(OS(=O)(=O)O)cc1)C(=O)NCC(=O)N[C@@H](Cc1c[nH]c2ccccc12)C(=O)N[C@@H](CCCC)C(=O)N[C@@H](CC(=O)O)C(=O)N(C)[C@@H](Cc1ccccc1)C(N)=O [CCK7 analogue] ({Hydrocinnamoyl(4-OSO3H)}-[Nle]GW[Nle]D[NMeF]-NH2) | – | 0.99 nM | IC50 [4]: 10 nM |

The next lines start with results.

| IC50 [1] | IC50 [3] | SMILES | other results |
| --- | --- | --- | --- |
| 0.5 nM | – | CCCC[C@H](NC(=O)CCc1ccc(OS(=O)(=O)O)cc1)C(=O)NCC(=O)N[C@@H](Cc1c[nH]c2ccccc12)C(=O)N[C@@H](CCCC)C(=O)N[C@@H](CC(=O)O)C(=O)N[C@@H](Cc1ccccc1)C(N)=O | – |
| 15 nM | – | CCCC[C@H](NC(=O)[C@H](Cc1c[nH]c2ccccc12)NC(=O)CN1CC[C@H](NC(=O)CCc2ccc(OS(=O)(=O)O)cc2)C1=O)C(=O)N[C@@H](CC(=O)O)C(=O)N[C@@H](Cc1ccccc1)C(N)=O | – |
| 1.1 nM | – | CC(C)C[C@H](NC(=O)[C@H](Cc1c[nH]c2ccccc12)NC(=O)CCCCNC(=O)CCc1ccc(OS(=O)(=O)O)cc1)C(=O)N[C@@H](CC(=O)O)C(=O)N[C@@H](Cc1ccccc1)C(N)=O ({Hydrocinnamoyl(4-OSO3H)-Ava}-WLDF-NH2) | – |
| 0.59 nM | – | CCCC[C@H](NC(=O)[C@H](Cc1c[nH]c2ccccc12)NC(=O)CNC(=O)[C@H](CC(C)C)NC(=O)CCc1ccc(OS(=O)(=O)O)cc1)C(=O)N[C@@H](CC(=O)O)C(=O)N[C@@H](Cc1ccccc1)C(N)=O ({Hydrocinnamoyl(4-OSO3H)}-LGW[Nle]DF-NH2) | – |
